Measured values from patent US8008333B2, “Single dose aromatase inhibitor for treating infertility” (Ares Trading S.A., priority 2001, dated 2011).
Structures can show the parent of a compound that is named as a salt. Where two headings read alike, the source gives them in different places.

Columns and labels:
[1] = test system: endometrium of normal women; conditions: reduction in glandular density, increase in vacuolated cells; cited from earlier work
women with PCOS = conditions: PCOS group, cited from earlier work
[2] = test system: low responders during ovarian stimulation; test: letrozole with FSH stimulation in low responders; type: in vivo, human
[3] = in vivo; cited from earlier work
ovulatory women = conditions: ovulatory group, one patient; cited from earlier work
[4] = test system: ovulatory women with unexplained infertility and anovulatory women with PCOS; test: letrozole in conjunction with FSH for controlled ovarian super ovulation; type: in vivo, human
[5] = test system: infertile patients (PCOS, unexplained infertility)
Excerpt: HCG 10,000 IU was given to trigger ovulation. Follicular development was monitored by transvaginal ultrasound and hormonal assays of estrogen and LH.

| SMILES | effect on the endometrium [1] | pregnancy (women with PCOS; 3 patients) | ovulation (women with PCOS; 9 of 12 cycles) | ovarian response to FSH stimulation [2] | half-life [3] | pregnancy (ovulatory women) | FSH dose required for achievement of adequate ovarian super ovulation [4] | Endometrial thickness on hCG day ([5]; Letrozole 5 days cycle) | Estradiol on hCG day ([5]; Letrozole 5 days cycle) | Estradiol/mature follicle ([5]; Letrozole 5 days cycle) | Follicles >1.5 cm ([5]; Letrozole 5 days cycle) | LH ([5]; Letrozole 5 days cycle) | Endometrial thickness on hCG day ([5]; Letrozole single-dose cycles) | Estradiol on hCG day ([5]; Letrozole single-dose cycles) | Estradiol/mature follicle ([5]; Letrozole single-dose cycles) | Follicles >1.5 cm ([5]; Letrozole single-dose cycles) | LH ([5]; Letrozole single-dose cycles) | ovulation ([5]; single 20 mg dose on day 3, out of the 9 single-dose treatment cycles) | pregnancy achieved ([5]; single 20 mg dose on day 3, seven patients) | characteristics of the single dose treatment cycles versus the 5-day treatment cycles ([5]; single 20 mg dose vs […] for 5 days) |
| --- | --- | --- | --- | --- | --- | --- | --- | --- | --- | --- | --- | --- | --- | --- | --- | --- | --- | --- | --- | --- |
| CCN(CC)CCOc1ccc(C(=C(Cl)c2ccccc2)c2ccccc2)cc1 [CC, clomiphene citrate] | deleterious effect on the endometrium | – | – | – | – | – | – | – | – | – | – | – | – | – | – | – | – | – | – | – |
| N#Cc1ccc(C(c2ccc(C#N)cc2)n2cncn2)cc1 [letrozole] | – | 25% | 75% | improvement | around two | 10% | significantly lower | 0.9 (0.2) cm | 919 (782) pmol/L | 462 (257) pmol/L | 1.9 (0.2) | 18.2 (16.2) IU/L | 0.9 (0.11) cm | 831 (359) pmol/L | 390 (74) pmol/L | 2.29 (1.3) | 19.1 (12.7) IU/L | 8 cycles | one | no significant difference |
